Data published in patent US12161657B2, “Combinatorial therapy for use in inducing immunogenic cell death in cancer cells” (priority 2021, dated 2024).

Assays:
[1] = system: MCF-7 (human breast cancer); assay: MTS cell viability assay, MCF-7 cells; assay type: cell-based; conditions: for efficacy in killing cancer cells: MCF7, concentration 6× lower than the ED50 concentrations, FIG. 3b; for EC50: Homo sapiens, MCF7, MTS, 48 hours, individual drug, read-out: ED50 in MCF-7
Experimental: (§1) The 50% effective dose (or ED50) for 2-DG, MTX, and WGN (individually) against the cancer cell lines 4T1 (mouse breast cancer), MCF-7 (human breast cancer), THP-1 (human myelomonocytic cancer), and B16-F10 (mouse melanoma) was determined (Table 1). The cell lines were specifically chosen for their extremely aggressive nature. For example, the cell lines have evolved multiple mechanisms of resistance to cell death and are highly metastatic (e.g., equivalent to a stage 4 cancer model). In this assay, a Determination of the ED50 using the MTS cell viability assay
(§2) Analysis of the effects of MTX-2DG-WGN combination on cell growth was performed with an MTS kit (CellTiter 96® AQueous One Solution Cell Proliferation Assay Kit, Promega, Madison, WI, USA) according to the manufacturer's instruction. 4-T1, MCF-7, B16-F10, and THP-1 cells were seeded into 96-well plates at a density of 10×10^3 cells per well with three replicates. The cells were treated as indicated (MTX, 2DG, and WGN were added initially at concentrations of 100 μM, 50 mM, and 200 μM, respectively, followed by serial two-fold dilutions) and incubated for 48 hours at 5% CO2 at 37° C. After 48 h, 20 μL of CellTiter 96® AQueous One Solution MTS (5 mg/mL) (Promega—Madison, WI, USA) was added to each well and incubated at 5% CO2 at 37° C. for an additional 4 hours. Absorbance readings were taken in an Epoch microplate reader at 490 nm. Computed data was compared to untreated and normalized cells. Cells that were not administered any treatment were considered the control group. Cell viability was calculated by the following formula: Cell viability (%)=(average OD in treated group/average OD in control group)×100%. A dose-activity curve with the concentration spectrum was prepared.
(§3) The EC50 was extrapolated from the dose-response graph. The drug concentration that caused 50% maximum effect with regards to cytotoxicity was determined by plotting triplicate data points over a concentration range and calculating values using regression analysis of GraphPad PRISM v8 program.
(§4) MTX, 2-DG, and WGN were tested alone and in combination. […] The combination of all 3 compounds was also tested, along with a negative control (untreated). The results are shown for 4T1 mouse breast cancer cells (FIG. 3a) and MCF7 human breast cancer cells (FIG. 3b).
(§5) The testing protocol was the same as that described for the ED50 noted above.

[2] = system: 4T1 (mouse breast cancer); assay: MTS cell viability assay, 4T1 cells; assay type: cell-based; conditions: for efficacy in killing cancer cells: 4T1, concentration 6× lower than the ED50 concentrations, FIG. 3a; for EC50: Mus musculus, 4T1, MTS, 48 hours, individual drug, read-out: ED50 in 4T1
Experimental: as §1, §2, §3, §4, §5

[3] = 2-DG administration, patients; cited from earlier work
[4] = 2-DG used alone; cited from earlier work
[5] = system: THP-1 (human myelomonocytic cancer); assay: MTS cell viability assay, THP-1 cells; assay type: cell-based; conditions: 48 hours, individual drug, read-out: ED50 in THP-1
Experimental: as §1
(§6) Analysis of the effects of MTX-2DG-WGN combination on cell growth was performed with an MTS kit (CellTiter 96® AQueous One Solution Cell Proliferation Assay Kit, Promega, Madison, WI, USA) according to the manufacturer's instruction. […] Absorbance readings were taken in an Epoch microplate reader at 490 nm. […] Cell viability was calculated by the following formula: Cell viability (%)=(average OD in treated group/average OD in control group)×100%. […]
(§7) The EC50 was extrapolated from the dose-response graph. The drug concentration that caused 50% maximum effect with regards to cytotoxicity was determined by plotting triplicate data points over a concentration range and calculating values using regression analysis of GraphPad PRISM v8 program. […]

[6] = system: dihydrofolate reductase (DHFR); conditions: cited from earlier work
B16-F10 (mouse melanoma) = assay: MTS cell viability assay, B16-F10 cells; assay type: cell-based; conditions: 48 hours, individual drug, read-out: ED50 in B16-F10
Experimental: as §1, §6, §7

[7] = system: 4T1 mouse breast cancer cells 3D cancerspheres; assay: 3D cancersphere viability, 4T1; assay type: cell-based; conditions: 4T1 cancerspheres, 48 h treatment; doxorubicin 25 μM, FIGS. 7a, 7b
Experimental: (§8) A new model for tumor growth in vitro has been established as 3D cultures known as cancerspheres. To evaluate the clinical translatability and predictivity of the novel combinatorial therapy in vivo, 3D cancerspheres suspended in media containing extracellular matrix proteins (ECM) were treated with the combination of MTX, 2-DG, and WGN.
(§9) Mammary tumorspheres were grown using Matrigel® Extracellular Matrix Basement Membrane (Corning, USA). […]
(§10) After 8 days of culture and 48 h treatment, tumorspheres of roughly 50 cells or more were selected for qualitative analysis. […] After 5 min, tumorspheres were analyzed microscopically. […] Dead (non-viable) spheroids were characterized as stained and displaying no luminescence.
(§11) On the 8th day of culture, media from MCF-7 and 4-T1 mammary tumorsphere cultures was changed and cells were then treated with either our novel combinatorial therapy or 25 μM doxorubicin. […] Absorbance readings were taken in an Epoch microplate reader at 490 nm. […] Cell viability was calculated by the following formula: Cell viability (%)=(average OD in treated group/average OD in control group)×100%.

[8] = system: MCF-7 human breast cancer cells 3D cancerspheres; assay: 3D cancersphere viability, MCF-7; assay type: cell-based; conditions: MCF-7 cancerspheres, 48 h treatment; doxorubicin 25 μM, FIGS. 7c, 7d
Experimental: as §8, §9, §10, §11

## OCC1O[C@H](O)C[C@@H](O)[C@@H]1O (mixture of isomers) [2-DG, 2-deoxyglucose]
[1]
  efficacy in killing cancer cells: no effect whatsoever
[2]
  efficacy in killing cancer cells: no effect whatsoever
[3]
  doses at which adverse effects occur: above 63 mg/kg
[4]
  concentration needed to be effective when used alone: > 5 mM

## CN(Cc1cnc2nc(N)nc(N)c2n1)c1ccc(C(=O)N[C@@H](CCC(=O)O)C(=O)O)cc1 [MTG, Methotrexate]
[1]
  EC50: 0.049 µM
  efficacy in killing cancer cells: no effect whatsoever
[2]
  efficacy in killing cancer cells: no effect whatsoever
  EC50: 0.049 µM
[5]
  EC50: 1.82 µM
[6]
  affinity for DHFR relative to folate: about 1000 fold
B16-F10 (mouse melanoma)
  EC50: 0.019 µM

## COc1c(O)cc(O)c2c(=O)cc(-c3ccccc3)oc12 [WGN, Wogonin]
[1]
  EC50: 20.2 µM
  efficacy in killing cancer cells: no effect whatsoever
[2]
  efficacy in killing cancer cells: no effect whatsoever
  EC50: 85 µM
[5]
  EC50: 83 µM
B16-F10 (mouse melanoma)
  EC50: 76 µM

## COc1cccc2c1C(=O)c1c(O)c3c(c(O)c1C2=O)C[C@@](O)(C(=O)CO)C[C@@H]3O[C@H]1C[C@H](N)[C@H](O)[C@H](C)O1 [doxorubicin]
[7]
  efficacy against 3D cancerspheres: resistant
[8]
  efficacy against 3D cancerspheres: resistant
